In PMC9959269, “Pyrrolyl and Indolyl α-γ-Diketo Acid Derivatives Acting as Selective Inhibitors of Human Carbonic Anhydrases IX and XII” (Pharmaceuticals, 2023):
Values joined by “and” are separate entries in the source; they are usually repeats but may differ in a detail not shown here. Equal values may be shown once.

Legend:
[1] = target: T1, hCA I (Homo sapiens, UniProt P00915); assay: Stopped flow CO2 hydrase assay, hCA I inhibition; type: biochemical; conditions: stopped flow technique, means ± SEM of 3 different assays, recombinant hCA I; for Ki: read-out: Ki CA I
T1 construct: made in house
Method: (§1) An Applied Photophysics stopped-flow instrument has been used for assaying the CA catalyzed CO2 hydration activity. Phenol red (at a concentration of 0.2 mM) has been used as an indicator, working at the absorbance maximum of 557 nm, with 20 mM Hepes (pH 7.5) as buffer and 20 mM Na2SO4 (for maintaining constant the ionic strength), following the initial rates of the CA-catalyzed CO2 hydration reaction for a period of 10−100 s. The CO2 concentrations ranged from 1.7 to 17 mM for the determination of the kinetic parameters and inhibition constants. […] The uncatalyzed rates were determined in the same manner and subtracted from the total observed rates. Stock solutions of inhibitor (0.1 mM) were prepared in distilled−deionized water and dilutions up to 0.01 nM were performed thereafter with the assay buffer. Inhibitor and enzyme solutions were preincubated together for 15 min at room temperature before assay to allow for the formation of the E−I complex. The inhibition constants were obtained by nonlinear least-squares methods using PRISM 3 and the Cheng−Prusoff equation, as reported earlier, and they represent the mean from at least three different determinations. […] All hCA isoforms were recombinant ones obtained in-house as reported earlier.

[2] = target: T2, hCA IX (Homo sapiens, UniProt Q16790); assay: Stopped flow CO2 hydrase assay, hCA IX inhibition; type: biochemical; conditions: for Ki: stopped flow technique, means ± SEM of 3 different assays, recombinant hCA IX, read-out: Ki CA IX; for Selectivity for CA IX and XII over hCAs I and II: from Ki values
T2 construct: made in house
Method: as §1

[3] = target: T3, hCA XII (Homo sapiens, UniProt O43570); assay: Stopped flow CO2 hydrase assay, hCA XII inhibition; type: biochemical; conditions: for Ki: stopped flow technique, means ± SEM of 3 different assays, recombinant hCA XII, read-out: Ki CA XII
T3 construct: made in house
Method: as §1

[4] = target: T4, hCA II (Homo sapiens, UniProt P00918); assay: Stopped flow CO2 hydrase assay, hCA II inhibition; type: biochemical; conditions: stopped flow technique; means ± SEM of 3 different assays; recombinant hCA II; read-out: Ki CA II
T4 construct: made in house
Method: as §1

[5] = tested on: colon carcinoma HT-29; assay: In vitro proliferation assay (sulforhodamine B), HT-29; type: cell-based; conditions: Homo sapiens, ± SD
Method: (§2) The effects of selected compounds were also examined on the proliferation of four cell lines from different human solid tumors overexpressing hCA isoforms IX and XII: triple negative breast cancer MDA-MB231, colon carcinoma HT-29, tongue squamous carcinoma SCC-15 and pharynx squamous carcinoma FaDu. The cell lines were treated with 5, 10, 20, 50, 100 µM of each single compound for 24 and 48 h. In parallel, the proliferation assay was performed also on HaCaT, a human non-transformed keratinocyte cell line, with each compound used at the same concentrations and times already indicated. The median values from three different proliferation assays for each compound and for each cell line were calculated and their significance was evaluated.
(§3) The following human tumor cell lines were utilized in the present study: triple-negative breast cancer MDA-MB231, colon carcinoma HT-29, tongue squamous cell carcinoma SCC-15 and pharynx squamous cell carcinoma FaDu. In addition, a spontaneously transformed keratinocyte cell line from human skin HaCaT was used as control of non-transformed cells. All cell lines were purchased from the American Type Culture Collection (Manassas, VA, USA).
(§4) The cell lines were grown in RPMI 1640 medium supplemented with 10% fetal calf serum (FCS), 2 mM glutamine and 50 U/mL penicillin–streptomycin.
(§5) All compounds were solubilized in dimethylsulfoxide (DMSO) (Sigma) for a 10 mM stock solution and utilized to final concentrations from 5 to 100 μM for 24 and 48 h. Control cells were treated with equivalent amounts of DMSO in every experiment.
(§6) To determine cytotoxicity, a sulforhodamine B colorimetric assay was performed: 5 × 10^3 cells were plated on 96-well plates, grown for 24 h and treated with different concentrations of each compound for 24 and 48 h. Cells were then fixed with 50% trichloroacetic acid for 1 h at 4 °C and stained for 30 min (min) at room temperature (RT) with 0.4% sulforhodamine B in 1% acetic acid. Excess dye was removed by washing four times with 1% acetic acid. Protein-bound dye was dissolved in 10 mM Tris pH 10 and optical density was determined at 510 nm using a microplate reader.

[6] = tested on: MDA-MB231, HT-29, SCC-15 and FaDu tumor cell lines; assay: In vitro proliferation assay, four tumor cell lines taken together; type: cell-based, human; conditions: for Lowest concentration determining a significant decrease in alive cells: tumor cell lines, 24 h; for Antiproliferative activity (in words): four tumor cell lines, 5-100 µM, 24 and 48 h
Method: as §2, §3, §4, §5, §6

[7] = tested on: tongue squamous carcinoma SCC-15; assay: In vitro proliferation assay (sulforhodamine B), SCC-15; type: cell-based; conditions: Homo sapiens, ± SD
Method: as §2, §3, §4, §5, §6

[8] = tested on: pharynx squamous carcinoma FaDu; assay: In vitro proliferation assay (sulforhodamine B), FaDu; type: cell-based; conditions: Homo sapiens, ± SD
Method: as §2, §3, §4, §5, §6

[9] = tested on: triple negative breast cancer MDA-MB231; assay: In vitro proliferation assay (sulforhodamine B), MDA-MB231; type: cell-based; conditions: Homo sapiens, MDA-MB-231, ± SD
Method: as §2, §3, §4, §5, §6

[10] = tested on: HaCaT; assay: In vitro proliferation assay (sulforhodamine B), HaCaT non-transformed keratinocytes; type: cell-based, human; conditions: 24 and 48 h, no effect except at a very high concentration, above 100 µM
Method: as §2
The following human tumor cell lines were utilized in the present study: triple-negative breast cancer MDA-MB231, colon carcinoma HT-29, tongue squamous cell carcinoma SCC-15 and pharynx squamous cell carcinoma FaDu. […]
To determine cytotoxicity, a sulforhodamine B colorimetric assay was performed: 5 × 10^3 cells were plated on 96-well plates, grown for 24 h and treated with different concentrations of each compound for 24 and 48 h. […] Protein-bound dye was dissolved in 10 mM Tris pH 10 and optical density was determined at 510 nm using a microplate reader.

T3 sequence (O43570 25-354): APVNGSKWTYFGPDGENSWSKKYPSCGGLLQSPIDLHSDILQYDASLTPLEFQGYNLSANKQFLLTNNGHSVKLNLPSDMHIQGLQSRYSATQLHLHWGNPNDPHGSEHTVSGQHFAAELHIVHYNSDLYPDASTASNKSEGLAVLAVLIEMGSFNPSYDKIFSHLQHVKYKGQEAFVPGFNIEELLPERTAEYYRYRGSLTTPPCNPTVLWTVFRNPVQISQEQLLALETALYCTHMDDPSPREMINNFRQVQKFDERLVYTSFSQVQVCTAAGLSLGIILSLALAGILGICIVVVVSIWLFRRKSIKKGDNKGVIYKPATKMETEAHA
T1 sequence (P00915 whole entry): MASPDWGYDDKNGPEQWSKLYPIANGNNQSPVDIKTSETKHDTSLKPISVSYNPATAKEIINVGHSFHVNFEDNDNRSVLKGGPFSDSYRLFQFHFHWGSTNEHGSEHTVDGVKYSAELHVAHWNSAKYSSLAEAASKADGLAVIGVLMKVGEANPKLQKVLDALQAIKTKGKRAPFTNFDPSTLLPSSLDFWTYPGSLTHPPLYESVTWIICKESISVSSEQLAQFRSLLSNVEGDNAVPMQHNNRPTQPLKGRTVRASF

Ki [1] [µM] | Ki [2] | Ki [3] | Ki [4] [µM] | EC50 ([5]; 24 h treatment) [µM] | EC50 ([5]; 48 h treatment) [µM] | EC50 ([7]; 24 h treatment) [µM] | EC50 ([7]; 48 h treatment) [µM] | EC50 ([8]; 24 h treatment) [µM] | EC50 ([8]; 48 h treatment) [µM] | EC50 ([9]; 24 h treatment) [µM] | EC50 ([9]; 48 h treatment) [µM] | Ki CA I [1] | Selectivity for CA IX and XII over hCAs I and II [2] | Increase in activity against CA IX relative to diketobutanoic analogue 3a ([2]; ratio of Ki values, 5 vs 3a) | Increase in activity against CA XII relative to diketobutanoic analogue 3a ([3]; ratio of Ki values, 5 vs 3a) | Compound | Lowest concentration determining a significant decrease in alive cells [6] [µM] | Effect on proliferation of HaCaT cells [10] | Antiproliferative activity (in words) [6]
50.9 ± 4.1 | 18.4 ± 1.2 µM | 7.9 ± 0.6 µM | 54.7 ± 2.9 | – | – | – | – | – | – | – | – | – | – | – | – | O=C(O)/C(O)=C/C(=O)c1ccn(Cc2ccc(F)cc2)c1 [Compound 3b] | – | – | –
72.5 ± 5.1 | 1.4 ± 0.1 µM | 1.1 ± 0.1 µM | 38.7 ± 2 | – | – | – | – | – | – | – | – | – | – | – | – | O=C(/C=C(\O)C(=O)O)/C=C/c1cc(C(=O)c2ccccc2)c[nH]1 [Compound 1d] | – | – | –
> 100 | 57.3 ± 2.8 µM | 89.2 ± 5.2 µM | > 100 | – | – | – | – | – | – | – | – | – | – | – | – | CCOC(=O)/C(O)=C/C(=O)c1cn(Cc2ccc(F)cc2)cc1-c1ccccc1 [Compound 4a] | – | – | –
> 100 | 90.8 ± 4.6 µM | 89.3 ± 5.3 µM | > 100 | – | – | – | – | – | – | – | – | – | – | – | – | CCOC(=O)/C(O)=C/C(=O)/C=C/c1cccn1Cc1ccc(C)cc1 [Compound 2c] | – | – | –
> 100 | 43.1 ± 2.5 µM | 89 ± 6.1 µM | > 100 | – | – | – | – | – | – | – | – | – | – | – | – | CCOC(=O)/C(O)=C/C(=O)/C=C/c1cn(Cc2ccc(F)cc2)cc1-c1ccccc1 [Compound 6] | – | – | –
> 100 | > 100 µM | 71.5 ± 4.3 µM | > 100 | – | – | – | – | – | – | – | – | – | – | – | – | CCOC(=O)/C(O)=C/C(=O)c1ccn(Cc2ccc(F)cc2)c1 [Compound 4b] | – | – | –
91.7 ± 7.5 | 1.1 ± 0.1 µM | 0.8 µM and 0.83 µM | 36.5 ± 1.9 | 47 ± 5 | 30 ± 2.8 | 48 ± 3.9 | 17 ± 0.8 | 51 ± 4.7 | 22 ± 1.2 | 21 ± 1.8 | 12 ± 1.1 | – | – | – | – | COc1ccc(Cn2cc(/C=C/C(=O)/C=C(\O)C(=O)O)c3ccccc32)cc1 [Compound 7] | 10 | no significant effect | –
89.6 ± 4.8 | 2.5 ± 0.1 µM | 2.2 ± 0.1 µM | 14 ± 0.8 | 92 ± 9.9 | 75 ± 8.2 | – | – | 98 ± 8.6 | 90 ± 9.3 | – | – | – | – | – | – | O=C(/C=C(\O)C(=O)O)/C=C/c1cccn1Cc1ccccc1F [Compound 1b] | – | – | low efficacy
> 100 | 90.1 ± 4.7 µM | 83.6 ± 5.4 µM | > 100 | – | – | – | – | – | – | – | – | – | – | – | – | CCOC(=O)/C(O)=C/C(=O)/C=C/c1cccn1Cc1ccc(F)cc1 [Compound 2a] | – | – | –
> 100 | 1.4 ± 0.1 µM | 0.3 µM and 0.33 µM | 77.6 ± 4.5 | – | – | – | – | – | – | – | – | inactive | – | – | – | O=C(O)/C(O)=C/C(=O)c1cn(Cc2ccc(F)cc2)cc1-c1ccccc1 [Compound 3a] | – | – | –
> 100 | 23.7 ± 1.6 µM | 80.5 ± 6.1 µM | > 100 | – | – | – | – | – | – | – | – | – | – | – | – | CCOC(=O)/C(O)=C/C(=O)/C=C/c1cccn1Cc1ccccc1F [Compound 2b] | – | – | –
> 100 | 0.3 µM and 0.32 µM | 0.2 µM and 0.24 µM | 62.5 ± 3.6 | 98 ± 11 | 21 ± 1.6 | 102 ± 9.7 | 58 ± 6.2 | 103 ± 11.4 | 23 ± 2.8 | 120 ± 15.7 | 105 ± 13.2 | inactive | two orders of magnitude selective | more than 4 times | about 1.5 times | O=C(/C=C(\O)C(=O)O)/C=C/c1cn(Cc2ccc(F)cc2)cc1-c1ccccc1 [Compound 5] | – | – | significant antiproliferative activity
79 ± 3.9 | 0.8 µM and 0.82 µM | 0.9 ± 0.07 µM | 44.4 ± 2.6 | 115 ± 10.8 | 48 ± 4.1 | 96 ± 8.5 | 53 ± 5.9 | 59 ± 4.5 | 17 ± 0.9 | 85 ± 9.1 | 73 ± 5.5 | – | two orders of magnitude selective | – | – | Cc1ccc(Cn2cccc2/C=C/C(=O)/C=C(\O)C(=O)O)cc1 [Compound 1c] | – | – | significant antiproliferative activity
81.9 ± 6 | 2 ± 0.1 µM | 1 ± 0.1 µM | 14.6 ± 0.9 | – | – | – | – | – | – | – | – | – | – | – | – | O=C(/C=C(\O)C(=O)O)/C=C/c1cccn1Cc1ccc(F)cc1 [Compound 1a] | – | – | –
> 100 | 80.1 ± 5.3 µM | 92 ± 6 µM | > 100 | 75 ± 8.8 | 44 ± 2.3 | 44 ± 4.1 | 21 ± 1.9 | 41 ± 3.3 | 18 ± 0.7 | 23 ± 1.6 | 17 ± 0.9 | – | – | – | – | CCOC(=O)/C(O)=C/C(=O)/C=C/c1cn(Cc2ccc(OC)cc2)c2ccccc12 [Compound 8] | 10 | no significant effect | –
